Like-named read-outs stand apart in the source and are kept apart here.
How the values were obtained:
NK cells [1] = assay: NK cell stimulation (3H thymidine uptake assays and 51Cr release assays); type: cell-based, human
Method: (§1) The proliferative capacity of NK and T cells against different Hsp70 peptides and Hsp70 protein (loc. sit) was determined in a standard ^3H thymidine uptake assay (22). Viable cells (5×10^4 cells/100 μl) were seeded in 96-well flat-bottom microtiter plates (Greiner Nuertingen, Germany) in supplemented RPMI-1640 medium containing 100 IU IL-2 and Hsp70 protein (10 μg/ml) or different amounts of Hsp70 peptides ranging from 0.02 up to 10 μg/ml. As an internal control the proliferation against IL-2 alone was measured in parallel. After a 24 or 48 hour incubation period the cells were pulsed with ^3H thymidine (1 μCi/well) and the total uptake was measured following an 18 hour incubation period at 37° C. in a liquid scintillation counter (Beckmann instruments, Munich, Germany).
The cytolytic activity of NK cells was monitored in a standard ^51Cr assay (23). Dilutions of the effector cells were incubated with ^51Cr-labeled (100 μCi of Na^51CrO4, NEN-Dupont, Boston, Mass.) tumor target cells (3×10^3 cells per well) in duplicates at a final volume of 200 μl RPMI-1640 medium supplemented with 10% FCS at 37° C. for 4 h in 96-well U-bottom plates (Greiner, Nuertingen, Germany). After the incubation period supernatants were collected and the radioactivity was counted in a γ-counter (Packard Instruments). The percentage of specific lysis was determined according to the equation: (experimental release−spontaneous release)/(maximum release−spontaneous release)×100. The percentage spontaneous release was always<15% for each target cell line.

NK cells [2] = settings: Table II, complete proteins; cited from earlier work
NK cells [3] = assay: 3H thymidine uptake assay, proliferative response of NK cells; type: cell-based, human; settings: IL-2 100 IU/ml plus peptide 0.02 up to 8 μg/ml
Method: Comparison of the proliferative response of NK cells against Hsp70 peptides. NK cells were stimulated either with IL-2 (100 IU/ml) alone or with IL-2 plus peptides NLL (8-mer, FIG. 1a), TKD (14-mer, FIG. 1b) and GIPP (13 mer, FIG. 1c) at concentrations 0.02, 0.2, 2, 4 and 8 μg/ml. As a positive control NK cells were stimulated with rHsp70 protein at a concentration of 10 μg/ml. The proliferative response of NK cells was measured 72 h after peptide incubation and an 18 h incubation period with ^3H thymidine (1 μCi/ml). In FIG. 1e stimulation with TKD in a more refined scale between 0.1 and 3 μg is shown. […] Values are given as the means of four independent experiments+/−SD.
(§2) Briefly, monocyte depleted peripheral blood lymphocytes (PBL) were isolated from buffy coats of healthy human volunteers (Multhoff et al., 1995a). NK cells were purified by adherence selection following a modified protocol of Vujanovic (1993). T cells remain in the supernatant cell population.
as §1

T cells = assay: 3H thymidine uptake assay, proliferative response of T cells; type: cell-based, human; settings: peptides plus low dose IL-2 (100 IU/ml), any tested concentration
Method: as §2, §1

CX− tumor cells = assay: 51Cr release assay (CML), cytolytic activity of stimulated NK cells against CX-; type: cell-based, human; settings: NK cells stimulated 4 days with IL-2 100 IU/ml plus peptide 2 μg/ml
Method: (§3) Cytolytic activity of NK cells stimulated with IL-2 alone or with IL-2 plus the 14-mer peptide TKD or with IL-2 plus the 8-mer peptide NLL. Cytolytic activity of NK cells either stimulated with low dose IL-2 (100 IU/ml) alone or with IL-2 plus the 14-mer peptide TKD (2 μg/ml) or with IL-2 plus the 8-mer peptide NLL (2 μg/ml) for 4 days. As target cells ^51Cr labeled CX+ (FIG. 2a) and CX− (FIG. 2b) tumor cells, that differ with respect to their capability to express Hsp70 on the plasma membrane, were used. The results are expressed as the percentage of specific lysis at varying E:T ratios ranging from 2:1 up to 40:1. […]
(§4) The colon carcinoma sublines CX+ (>90% Hsp70 positive cells) and CX− (<20% Hsp70 positive cells) described in patent application EP-A2-084 300 5 and originally derived from CX2 colon carcinoma cells (Tumorzentrum Heidelberg, TZB 610005, Germany) that differ with respect to their capacity to express Hsp70 on their plasma membrane were cultured at 37° C., 5% CO2 in RPMI-1640 medium (Gibco, Eggenstein, Germany) supplemented with heat-inactivated 10% FCS (Gibco) and 2 mM L-glutamine and antibiotics (penicillin/streptomycin). […] All cell lines were free from mycoplasma contamination as determined by repeated testing using the 6-methylpurin desoxyribosid assay (Boehringer Mannheim, Germany).
(§5) The cytolytic activity of NK cells was monitored in a standard ^51Cr assay (23). […]

NK cells [4] = assay: FACScan phenotypic characterization of stimulated NK cells; type: cell-based, human; settings: NK cells stimulated with IL-2 plus peptide 2 μg/ml
Method: Cytolytic activity of NK cells stimulated with IL-2 alone or with IL-2 plus the 14-mer peptide TKD or with IL-2 plus the 8-mer peptide NLL. Cytolytic activity of NK cells either stimulated with low dose IL-2 (100 IU/ml) alone or with IL-2 plus the 14-mer peptide TKD (2 μg/ml) or with IL-2 plus the 8-mer peptide NLL (2 μg/ml) for 4 days. As target cells ^51Cr labeled CX+ (FIG. 2a) and CX− (FIG. 2b) tumor cells, that differ with respect to their capability to express Hsp70 on the plasma membrane, were used. The results are expressed as the percentage of specific lysis at varying E:T ratios ranging from 2:1 up to 40:1. The percentage spontaneous release for each tumor target cell line was less than 20%.
Directly fluorescein-conjugated mAb (CD3FITC/CD16/CD56^PE, Becton Dickinson, Heidelberg, Germany) were added to cell suspensions (0.1×10^6 cells), incubated for 20 min on ice, washed and analysed on a FACScan instrument (Becton Dickinson, Heidelberg, Germany). The percentage of positively stained cells was defined as the number of specifically stained, viable (propidium-iodide negative) cells minus the number of cells stained with an isotype matched control antibody on a FACScan instrument (Becton Dickinson, Heidelberg, Germany).

CX+ tumor cells = assay: 51Cr release assay (CML), cytolytic activity of stimulated NK cells against CX+; type: cell-based, human; settings: NK cells stimulated 4 days with IL-2 100 IU/ml plus peptide 2 μg/ml, compared to IL-2 alone or IL-2 plus NLL
Method: as §3, §4, §5

NK cells [5] = settings: cited from earlier work
[6] = Table III, peptides only, 3H thymidine uptake and 51Cr release assays

## A A D N K S L G Q F N L D G (AADNKSLGQFNLDG) [DNAK, peptide, Dnak aa 447-460]
NK cells [1]; [6]
  NK cell stimulation: no

## Dank (complete protein): DnaK complete protein
NK cells [2]
  NK cell stimulation: no

## EGERAMTKDNNLLGRFELSG (EGERAMTKDNNLLGRFELSG) [Hsp70 (peptide) 441-463, 20 mer peptide of Hsp70]
NK cells [1]; Table II, peptides
  NK cell stimulation: yes

## G E R A M T K D N N L L G R F E L S G (GERAMTKDNNLLGRFELSG) [Hsp70 445-463, peptide, Hsp70 aa 445-463]
NK cells [1]; [6]
  NK cell stimulation: yes

## Hsc70 (complete protein): Hsc70 complete protein
NK cells [2]
  NK cell stimulation: no

## Hsp70hom (complete protein): testis specific member of the Hsp70 family, complete protein
NK cells [2]
  NK cell stimulation: yes

## NLLGRFEL
NK cells [3]
  proliferative capacity of NK cells: did not stimulate
T cells
  T cell growth: none of the three peptides NLL, GIPP or TKD stimulates T cell growth
CX− tumor cells
  lysis of CX− tumor cells: no significant differences
NK cells [1]; Table II, peptides
  NK cell stimulation: no
NK cells [1]; [6]
  NK cell stimulation: no
NK cells [4]
  CD3 positive cells: 8%
  CD16/56 positive cells: 80%

## NLLGRFELSGIPP [13-mer C-terminal extended peptide, Hsp70 aa 454-466]
NK cells [3]
  proliferative capacity of NK cells: did not stimulate
T cells
  T cell growth: none of the three peptides NLL, GIPP or TKD stimulates T cell growth
NK cells [1]; Table II, peptides
  NK cell stimulation: no
NK cells [1]; [6]
  NK cell stimulation: no

## T K D N N L L G K F E L T G (TKDNNLLGKFELTG) [Hsc70, peptide, Hsc70 aa 450-463]
NK cells [1]; [6]
  NK cell stimulation: no

## T K D N N L L G R F E L (TKDNNLLGRFEL) [TKD12, peptide, Hsp70 aa 450-461]
NK cells [1]; [6]
  NK cell stimulation: no

## T K D N N L L G R F E L S G (TKDNNLLGRFELSG) [14-mer peptide, Hsp70 aa 450-463]
NK cells [3]
  proliferative capacity of NK cells: comparable immunostimulatory capacity like full length Hsp70 protein
T cells
  T cell growth: none of the three peptides NLL, GIPP or TKD stimulates T cell growth
CX+ tumor cells
  lytic activity against Hsp70 expressing CX+ tumor cells: significantly enhanced lytic activity
CX− tumor cells
  lysis of CX− tumor cells: no significant differences
NK cells [1]; Table II, peptides
  NK cell stimulation: yes
NK cells [1]; [6]
  NK cell stimulation: yes
NK cells [4]
  CD3 positive cells: 6%
  CD16/56 positive cells: 79%

## T K D N N L L G R F E L T G (TKDNNLLGRFELTG) [HOM, peptide, Hsp70hom aa 450-463]
NK cells [1]; [6]
  NK cell stimulation: low

## rHsp70: Human recombinant Hsp70 protein from StressGen (SPP-755)
NK cells [5]; defined previously
  optimal stimulatory dose: 10 µg/mL
NK cells [5]; low dose IL-2 (100 IU/ml) plus protein, compared to IL-2 only
  proliferative response of human NK cells: increase the proliferative response

From US7745399B2, “Hsp70 peptide stimulating natural killer (NK) cell activity and uses thereof” (multimmune GmbH, priority 2000, dated 2010)
